Experimental data reported in PMC3514653 (Neuromodulation : journal of the International …, 2012).
Where two headings read alike, the source gives them in different places. Marks after values point to notes of the source that are not given here.

Experiments:
[1] = dog, in vivo
[2] = dog, in vivo; remark: listed apart in the source
[3] = dog, in vivo; remark: listed apart in the source
Male beagle dogs [4] = settings: dog, in vivo
Male beagle dogs [5] = settings: dog, in vivo; remark: listed apart in the source
Male beagle dogs [6] = settings: dog, in vivo; remark: listed apart in the source
Male beagle dogs [7] = settings: dog, in vivo, iv, 0.1 mg/kg
in vivo [8] = settings: male, beagle, dog, 10 ug
in vivo [9] = settings: male, beagle, dog, iv, 0.1 mg/kg
in vivo [10] = settings: beagle, dog
[11] = in vivo; cited from earlier work
[12] = in vivo; cited from earlier work; remark: listed apart in the source

CSCC[C@@H]1NC(=O)[C@H](CC(C)C)NC(=O)[C@H](CCCNC(=N)N)NC(=O)[C@H](CO)NC(=O)[C@@H]2CSSC[C@@H]3NC(=O)[C@H](CO)NC(=O)CNC(=O)[C@H]([C@@H](C)O)NC(=O)[C@H](CSSC[C@H](N)C(=O)N[C@@H](CCCCN)C(=O)NCC(=O)N[C@@H](CCCCN)C(=O)NCC(=O)N[C@@H](C)C(=O)N[C@@H](CCCCN)C(=O)N2)NC(=O)[C@H](CSSC[C@@H](C(N)=O)NC(=O)[C@H](CCCCN)NC(=O)CNC(=O)[C@H](CO)NC(=O)[C@H](CCCNC(=N)N)NC3=O)NC(=O)[C@H](CC(=O)O)NC(=O)[C@H](Cc2ccc(O)cc2)NC1=O [Ziconotide]
CSF : plasma ratio [1]: approximately 20,000: 1
Time of peak concentration in LCSF [1]: ≤ 3 min
Vz/F [1]: 12932 – 33328^b mL
Elimination T1/2 in CSF following IV injection [2]: 1.64 h
Elimination T1/2 in plasma following IV injection [2]: 0.75 h
Elimination half life after bolus IV delivery [2]: 1.6 h
FCSF (absolute bioavailability in CSF after bolus IV) [2]: 0.013%
LCSF: cisternal ratio at steady state [3]: ~1: 0.02
Plasma concentration relative to that in the cisterna [3]: approximately 0.1 times
Ratio of LCSF concentrations at infusion doses 1 and 5 µg/hr [3]: approximately 1: 4
Terminal elimination T1/2 after termination of continuous infusion [3]: 2.47 h
Time to peak plasma level [3]: ≤ 8 h
Plasma concentration at steady state, 8–48 hr group mean ([3]; male, beagle, 5 ug/hr): 1.12 ng/mL
Arousal, muscle tone, and coordination (Male beagle dogs [4]): not affected
Diarrhea, dogs affected (Male beagle dogs [4]): 3 of the 5
Severity of whole body trembling and ataxia (Male beagle dogs [4]): tendency for this to increase in severity
Whole body trembling, dogs affected (Male beagle dogs [4]): 3 of the 5
Persistence of observed effects (Male beagle dogs [4]; iv, 0.1 mg/kg): absent 24 hr post injection
Scleral vasodilation and facial erythema, dogs affected (Male beagle dogs [4]; iv, 0.1 mg/kg): 2 of the 5
Vomiting, dogs affected (Male beagle dogs [4]; iv, 0.1 mg/kg): 4 of the 5
Body temperature versus baseline (Male beagle dogs [5]): not different from pretreatment baseline measurements
Time for elevated temperatures to return to baseline (Male beagle dogs [5]): 24 to 72 h
Body temperature versus baseline (Male beagle dogs [5]; iv): not different from pretreatment baseline measurements
Blood pressure and heart rate effect (Male beagle dogs [6]): modest decline in mean, diastolic, and systolic pressures and a mild tachycardia
Effect upon blood pressure (Male beagle dogs [6]): no effect upon blood pressure
Effect upon mean, diastolic, and systolic blood pressures (Male beagle dogs [6]): prominent reduction that persisted for the remainder of the infusion
Duration of fall in blood pressures (Male beagle dogs [6]; iv, 0.1 mg/kg): > 8 h
Effect upon heart rate (Male beagle dogs [6]; iv, 0.1 mg/kg): corresponding tachycardia
Fall in mean, diastolic, and systolic pressures (Male beagle dogs [6]; iv, 0.1 mg/kg): approximately 40 mmHg
Respiratory rates (Male beagle dogs [7]): moderate decrease in respiratory rates for approximately 3 hr post injection
CL/F (in vivo [8]): 196 mL/min
Vd/F (in vivo [8]): 17.2 L
AUC(0-inf) (in vivo [8]; AUC∞): 0.85 ng·h/mL
bioavailability (in vivo [8]; iv): 53.5%
Cmax (in vivo [9]): ~900 ng/mL
CL/F (in vivo [10]; CL/F (infusion rate divided by steady-state concentration)): 134 mL/min
level at 48 h (in vivo [10]; male, 5 ug/hr): 13.5 ng/mL
Median LCSF half-life [11]: 4.5 h
Volume of distribution [11]: 99 mL
Diffusion of the peptide in rat brain parenchyma [12]: less than 1 mm
